“Also recorded” adds a separate entry of the source. Marks after values point to notes of the source that are not given here.
Key:
[1] = Oral bioavailability of PEG400:Labrasol formulation in dogs (earlier finding); conditions: dog, in vivo
[2] = Clinical observations and clinical pathology (liver enzymes) in monkeys; format: in vivo, cynomolgus monkeys (macaca fasicularis); conditions: for ALT / AST / LDH: fed
Procedure: (§1) For both species, each animal was part of each experimental group, with a 7-day interval between treatments to allow for washout of the dosing formulation and its effects. Dosing formulations of SR13668 were administered by oral gavage (intragastric) or intravenous (i.v.) injection as a single dose or once daily for seven consecutive days. Oral to doses were administered at a dosing volume of 5 mL/kg of body weight, while intravenous doses were administered at a dosing volume of 0.5 mL/kg of body weight. Dogs were dosed with 93.6 mg/m^2 SR13668 intravenously in DMSO:PEG300 15:85 (v/v) or orally in Solutol® vehicle (two groups, fed and after an overnight fast). Monkeys were dosed with 84.2 mg/m^2 SR13668 intravenously in DMSO:PEG300 15:85 (v/v) or orally (336.7 mg/m^2 SR13668 for the oral high dose group) in PEG400:Labrasol® 1:1 (v/v) or Solutol® vehicles. Vehicle control groups were used to assess the tolerability of the vehicle and for clinical pathology evaluations.
(§2) At the end of each dosing period, the animals were examined for detailed clinical signs and symptoms (i.e., alterations of teeth, nose, eyes, perineum, pelage and body orifices; changes in appearance or behavior) and/or presence of any tissue masses. Body weights were recorded prior to treatment and daily during each testing interval. Quantitative (grams/day) food consumption data were recorded for dogs on a daily basis during each testing interval. Qualitative food consumption observations were recorded for monkeys on a daily basis during each testing interval. Blood samples for clinical pathology (clinical chemistry, hematology, and coagulation) parameter evaluation were collected from dogs and monkeys prior to dosing and on Days 2 and 8 post-dose, as well as from monkeys on Days 15 and 30 post-dose.

[3] = Clinical observations and clinical pathology in dogs; format: in vivo, beagle dogs; conditions: for ALT / AST / LDH: day 2 following a single dose
Procedure: as §1, §2

[4] = Green C., unpublished results; cited from earlier work
[5] = Day 2 (n = 2), 84.2 mg/m^2 (7.02 mg/kg) oral gavage daily days 1 through 7, PEG400:Labrasol 1:1 v/v
[6] = Day 8, 84.2 mg/m^2 (7.02 mg/kg) oral gavage daily days 1 through 7, PEG400:Labrasol 1:1 v/v
[7] = Day 15 (after discontinuation), 84.2 mg/m^2 (7.02 mg/kg) oral gavage daily days 1 through 7, PEG400:Labrasol 1:1 v/v
[8] = Day 30 (after discontinuation), 84.2 mg/m^2 (7.02 mg/kg) oral gavage daily days 1 through 7, PEG400:Labrasol 1:1 v/v
[9] = day 2 following a single dose, 84.2 mg/m^2 (7.02 mg/kg) iv, DMSO:PEG300 15:85 v/v
[10] = day 2 following a single dose, 84.2 mg/m^2 (7.02 mg/kg) oral gavage, Solutol
[11] = day 2 following a single dose, 336.7 mg/m^2 (28.06 mg/kg) oral gavage, PEG400:Labrasol 1:1 v/v
[12] = day 2 following a single dose, n = 4, 84.2 mg/m^2 (7.02 mg/kg) oral gavage, PEG400:Labrasol 1:1 v/v
[13] = 93.6 mg/m^2 (4.68 mg/kg) iv, DMSO:PEG300 15:85 v/v, fed
[14] = 93.6 mg/m^2 (4.68 mg/kg) oral gavage, Solutol, fasted
[15] = 93.6 mg/m^2 (4.68 mg/kg) oral gavage, Solutol, fed

In the case of `CCOC(=O)c1ccc2[nH]c3c(OC)c4[nH]c5ccc(C(=O)OCC)cc5c4cc3c2c1` [SR13668, 2,10-dicarbethoxy-6-methoxy-5,7-dihydro-indolo-(2,3-b)carbazole], the bioavailability [1] is reported as < 1%, the “adverse treatment-related clinical observations” value [2] is reported as “soft stools and diarrhea in orally but not i.v. dosed monkeys” and the “effects on body weights, body weight gains or food consumption” value [2] is reported as “No significant treatment-related effects on body weights, body weight gains or food consumption”. The “effects on clinical pathology (clinical chemistry, hematology, coagulation)” value [2] was “modest, reversible increase in liver function enzymes; also recorded: modest increases in liver enzymes”, the mortality or morbidity [2] was “no mortalities or morbidity” and the ALT [2, 5] was 112 ± 52 IU/L. The AST [2, 5] was 234 ± 115 IU/L, the LDH [2, 5] was 1022 ± 401 IU/L and the ALT [2, 6] was 100 ± 38 ^a IU/L. For the same compound, the AST [2, 6] was 178 ± 86 ^b IU/L, the LDH [2, 6] was 1035 ± 596 IU/L and the ALT [2, 7] was 41.3 ± 10 IU/L. The AST [2, 7] was 24.0 ± 2.9 IU/L, the LDH [2, 7] was 184 ± 39 IU/L and the ALT [2, 8] was 33.3 ± 2.2 IU/L. For the same compound, the AST [2, 8] was 22.5 ± 4.3 IU/L, the LDH [2, 8] was 168 ± 39 IU/L and the “reversibility of liver enzyme increases” value ([2]; LDH, ALT, AST) was “reversible on discontinuation of dosing”. For the same compound, the ALT [2, 9] was 88.5 ± 37 IU/L, the AST [2, 9] was 134 ± 41 ^b IU/L and the LDH [2, 9] was 730 ± 210 ^c IU/L. For the same compound, the ALT [2, 10] was 95.5 ± 33 IU/L, the AST [2, 10] was 150 ± 40 ^b IU/L and the LDH [2, 10] was 779 ± 403 IU/L. The ALT [2, 11] was 108 ± 28 ^a IU/L, the AST [2, 11] was 188 ± 34 ^b IU/L and the LDH [2, 11] was 753 ± 242 ^c IU/L. It also gave an ALT [2, 12] of 86.0 ± 24 IU/L, an AST [2, 12] of 138 ± 75 IU/L and an LDH [2, 12] of 795 ± 455 IU/L. For the same compound, the “adverse treatment-related clinical observations” value [3] was “vomiting in fasted dogs”, the “effects on body weights, body weight gains or food consumption” value [3] was “No significant treatment-related effects on body weights, body weight gains or food consumption” and the “effects on clinical pathology (clinical chemistry, hematology, coagulation)” value [3] was “did not cause untoward hematology, clinical chemistry, or coagulation effects; also recorded: No treatment-related effects on any clinical pathology variables”. The mortality or morbidity [3] was “no mortalities or morbidity”, the ALT [3, 13] was 41.8 ± 5.4 IU/L and the AST [3, 13] was 30.8 ± 5.2 IU/L. For the same compound, the LDH [3, 13] was 54.8 ± 23 ^c IU/L, the ALT [3, 14] was 44.8 ± 10 IU/L and the AST [3, 14] was 30.8 ± 7.2 IU/L. It also gave an LDH [3, 14] of 56.3 ± 9.4 IU/L, an ALT [3, 15] of 39.5 ± 4.7 IU/L and an AST [3, 15] of 29.3 ± 3.6 IU/L. For the same compound, the LDH [3, 15] was 30.3 ± 6.2 ^c IU/L and the “metabolism in rat microsomes” value [4] was “slow metabolism”.
